Measured values published in patent US11780823B2, “Indazole-3-carboxamides and their use as Wnt/β-catenin signaling pathway inhibitors” (BioSplice Therapeutics, Inc., priority 2011, dated 2023).

These molecules were tested on Wnt activity (wnt-responsive SP5 promoter luciferase reporter in SW480 cells) (assay: Wnt reporter screening assay: SP5 promoter-driven firefly luciferase in SW480 cells). Settings: Homo sapiens; SW480 colon cancer cells with SP5 promoter luciferase reporter; half-log dilutions, ten micromolar top concentration; read 24-40 h after compound addition; normalized to DMSO; read-out: Wnt inhibition.
Type: cell-based
From the text: Another screening assay for Wnt activity is described as follows. Reporter cell lines can be generated by stably transducing cells of cancer cell lines (e.g., colon cancer) with a lentiviral construct that include a wnt-responsive promoter driving expression of the firefly luciferase gene.
Lentiviral constructs can be made in which the SP5 promoter, a promoter having eight TCF/LEF binding sites derived from the SP5 promoter, is linked upstream of the firefly luciferase gene. The lentiviral constructs can also include a hygromycin resistance gene as a selectable marker. The SP5 promoter construct can be used to transduce SW480 cells, a colon cancer cell line having a mutated APC gene that generates a truncated APC protein, leading to de-regulated accumulation of β-catenin.
Cultured SW480 cells bearing a reporter construct can be distributed at approximately 10,000 cells per well into 96 well or 384 well plates. Compounds from a small molecule compound library can then be added to the wells in half-log dilutions using a ten micromolar top concentration. A series of control wells for each cell type receive only buffer and compound solvent. Twenty-four to forty hours after the addition of compound, reporter activity for luciferase can be assayed, for example, by addition of the BrightGlo luminescence reagent (Promega) and the Victor3 plate reader (Perkin Elmer). Readings can be normalized to DMSO only treated cells, and normalized activities can then be used in the IC50 calculations.

SMILES | IC50
CN(C)C(=O)Nc1cncc(-c2ccc3[nH]nc(C(=O)Nc4cccnc4)c3c2)c1 [Compound 1, 5-(5-(3,3-dimethylureido)pyridin-3-yl)-N-(pyridin-3-yl)-1H-indazole-3-carboxamide] | 175 nM
O=C(Nc1ccc(C(F)(F)F)nc1)c1n[nH]c2ccc(-c3cncc(F)c3)cc12 [Compound 2, 5-(5-fluoropyridin-3-yl)-N-(6-(trifluoromethyl)pyridin-3-yl)-1H-indazole-3-carboxamide] | 5000 nM
O=C(Nc1ccc(C(F)(F)F)nc1)c1n[nH]c2ccc(-c3cccnc3)cc12 [Compound 3, 5-(Pyridin-3-yl)-N-(6-(trifluoromethyl)pyridin-3-yl)-1H-indazole-3-carboxamide] | 200 nM
O=C(Nc1cccnc1)c1n[nH]c2ccc(-c3cccnc3)cc12 [Compound 4, N,5-di(pyridin-3-yl)-1H-indazole-3-carboxamide] | 160 nM
O=C(Nc1cccc(-c2cccc(F)c2)c1)c1n[nH]c2ccc(-c3cccnc3)cc12 [Compound 5, N-(3′-Fluorobiphenyl-3-yl)-5-(pyridin-3-yl)-1H-indazole-3-carboxamide] | ≥ 10000 nM
O=C(Nc1ccncc1)c1n[nH]c2ccc(-c3cccnc3)cc12 [Compound 6, 5-(Pyridin-3-yl)-N-(pyridin-4-yl)-1H-indazole-3-carboxamide] | 270 nM
CN(C)Cc1cncc(NC(=O)c2n[nH]c3ccc(-c4cccnc4)cc23)c1 [Compound 7, N-(5-((Dimethylamino)methyl)pyridin-3-yl)-5-(pyridin-3-yl)-1H-indazole-3-carboxamide] | 110 nM
O=C(Nc1ccc(CN2CCCC2)nc1)c1n[nH]c2ccc(-c3cccnc3)cc12 [Compound 8, 5-(Pyridin-3-yl)-N-(6-(pyrrolidin-1-ylmethyl)pyridin-3-yl)-1H-indazole-3-carboxamide] | 130 nM
O=C(Nc1cncc(-c2cccc(F)c2)c1)c1n[nH]c2ccc(-c3cccnc3)cc12 [Compound 9, N-(5-(3-Fluorophenyl)pyridin-3-yl)-5-(pyridin-3-yl)-1H-indazole-3-carboxamide] | ≥ 10000 nM
CN1CCN(c2ncccc2NC(=O)c2n[nH]c3ccc(-c4cccnc4)cc23)CC1 [Compound 11, N-(2-(4-Methylpiperazin-1-yl)pyridin-3-yl)-5-(pyridin-3-yl)-1H-indazole-3-carboxamide] | ≥ 10000 nM
CN1CCN(c2ccc(NC(=O)c3n[nH]c4ccc(-c5cccnc5)cc34)cn2)CC1 [Compound 12, N-(6-(4-Methylpiperazin-1-yl)pyridin-3-yl)-5-(pyridin-3-yl)-1H-indazole-3-carboxamide] | 63 nM
O=C(Nc1cccnc1)c1n[nH]c2ccc(-c3cncc(F)c3)cc12 [Compound 13, 5-(5-fluoropyridin-3-yl)-N-(pyridin-3-yl)-1H-indazole-3-carboxamide] | 1250 nM
O=C(Nc1ccnnc1)c1n[nH]c2ccc(-c3cccnc3)cc12 [Compound 14, N-(Pyridazin-4-yl)-5-(pyridin-3-yl)-1H-indazole-3-carboxamide] | 106 nM
CN1CCN(Cc2ccc(NC(=O)c3n[nH]c4ccc(-c5cccnc5)cc34)cn2)CC1 [Compound 15, N-(6-((4-Methylpiperazin-1-yl)methyl)pyridin-3-yl)-5-(pyridin-3-yl)-1H-indazole-3-carboxamide] | 37 nM
O=C(Nc1cccnc1)c1n[nH]c2ccc(-c3cncc(C(F)(F)F)c3)cc12 [Compound 16, N-(pyridin-3-yl)-5-(5-(trifluoromethyl)pyridin-3-yl)-1H-indazole-3-carboxamide] | ≥ 10000 nM
O=C(Nc1ccc(Oc2ccccc2F)nc1)c1n[nH]c2ccc(-c3cccnc3)cc12 [Compound 18, N-(6-(2-fluorophenoxy)pyridin-3-yl)-5-(pyridin-3-yl)-1H-indazole-3-carboxamide] | 122 nM
O=C(Nc1ccc(Oc2cccc(F)c2)nc1)c1n[nH]c2ccc(-c3cccnc3)cc12 [Compound 19, N-(6-(3-Fluorophenoxy)pyridin-3-yl)-5-(pyridin-3-yl)-1H-indazole-3-carboxamide] | 107 nM
O=C(Nc1ccc(Oc2ccc(F)cc2)nc1)c1n[nH]c2ccc(-c3cccnc3)cc12 [Compound 20, N-(6-(4-Fluorophenoxy)pyridin-3-yl)-5-(pyridin-3-yl)-1H-indazole-3-carboxamide] | 118 nM
O=C(Nc1cncc(F)c1)c1n[nH]c2ccc(-c3cccnc3)cc12 [Compound 23, N-(5-Fluoropyridin-3-yl)-5-(pyridin-3-yl)-1H-indazole-3-carboxamide] | 120 nM

SMILES | IC50
CN(C)Cc1cncc(-c2ccc3[nH]nc(C(=O)Nc4ccc(C(F)(F)F)nc4)c3c2)c1 [Compound 26, 5-(5-((Dimethylamino)methyl)pyridin-3-yl)-N-(6-(trifluoromethyl)pyridin-3-yl)-1H-indazole-3-carboxamide] | 210 nM
O=C(Nc1cccnc1)c1n[nH]c2ccc(-c3cncc(NC(=O)N4CCOCC4)c3)cc12 [Compound 32, N-(5-(3-(Pyridin-3-ylcarbamoyl)-1H-indazol-5-yl)pyridin-3-yl) morpholine-4-carboxamide] | 1250 nM
CN(C)Cc1cncc(-c2ccc3[nH]nc(C(=O)Nc4ccc(Oc5ccccc5F)nc4)c3c2)c1 [Compound 36, 5-(5-((Dimethylamino)methyl)pyridin-3-yl)-N-(6-(2-fluorophenoxy)pyridin-3-yl)-1H-indazole-3-carboxamide] | 275 nM
Cn1nc(NC(=O)c2n[nH]c3ccc(-c4cccnc4)cc23)cc1C(F)(F)F [Compound 37, N-(1-Methyl-5-(trifluoromethyl)-1H-pyrazol-3-yl)-5-(pyridin-3-yl)-1H-indazole-3-carboxamide] | 1120 nM
CN1CCN(c2ccc(NC(=O)c3n[nH]c4ccc(-c5cncc(NC(=O)C6CC6)c5)cc34)cn2)CC1 [Compound 38, 5-(5-(Cyclopropanecarboxamido)pyridin-3-yl)-N-(6-(4-methylpiperazin-1-yl)pyridin-3-yl)-1H-indazole-3-carboxamide] | 120 nM
O=C(Nc1ccc(C(F)(F)F)nc1)c1n[nH]c2ccc(-c3cncc(NC(=O)C4CC4)c3)cc12 [Compound 39, 5-(5-(Cyclopropanecarboxamido)pyridin-3-yl)-N-(6-(trifluoromethyl)pyridin-3-yl)-1H-indazole-3-carboxamide] | 65 nM
CN(C)Cc1cncc(-c2ccc3[nH]nc(C(=O)Nc4cccnc4)c3c2)c1 [Compound 40, 5-(5-((Dimethylamino)methyl)pyridin-3-yl)-N-(pyridin-3-yl)-1H-indazole-3-carboxamide] | 65 nM
O=C(Nc1cccnc1)c1n[nH]c2ccc(-c3cncc(NC(=O)C4CC4)c3)cc12 [Compound 41, 5-(5-(Cyclopropanecarboxamido)pyridin-3-yl)-N-(pyridin-3-yl)-1H-indazole-3-carboxamide] | 67 nM
O=C(NCc1cccnc1)c1n[nH]c2ccc(-c3cccnc3)cc12 [Compound 42, 5-(Pyridin-3-yl)-N-(pyridin-3-ylmethyl)-1H-indazole-3-carboxamide] | 500 nM
O=C(Nc1cccnc1)c1n[nH]c2ccc(-c3cncc(CN4CCCC4)c3)cc12 [Compound 43, N-(Pyridin-3-yl)-5-(5-(pyrrolidin-1-ylmethyl)pyridin-3-yl)-1H-indazole-3-carboxamide] | 63 nM
CCOc1ccc(NC(=O)c2n[nH]c3ccc(-c4cncc(CN5CCCC5)c4)cc23)cn1 [Compound 44, N-(6-Ethoxypyridin-3-yl)-5-(5-(pyrrolidin-1-ylmethyl)pyridin-3-yl)-1H-indazole-3-carboxamide] | 158 nM
CCOc1ccc(NC(=O)c2n[nH]c3ccc(-c4cncc(CN5CCCCC5)c4)cc23)cn1 [Compound 45, N-(6-Ethoxypyridin-3-yl)-5-(5-(piperidin-1-ylmethyl)pyridin-3-yl)-1H-indazole-3-carboxamide] | 110 nM
O=C(Nc1cccnc1)c1n[nH]c2ccc(-c3cncc(CN4CCCCC4)c3)cc12 [Compound 46, 5-(5-(Piperidin-1-ylmethyl)pyridin-3-yl)-N-(pyridin-3-yl)-1H-indazole-3-carboxamide] | 15 nM
O=C(Nc1cnccc1C(F)(F)F)c1n[nH]c2ccc(-c3cncc(CN4CCCCC4)c3)cc12 [Compound 47, 5-(5-(Piperidin-1-ylmethyl)pyridin-3-yl)-N-(4-(trifluoromethyl)pyridin-3-yl)-1H-indazole-3-carboxamide] | 71 nM
O=C(Nc1cnccc1C(F)(F)F)c1n[nH]c2ccc(-c3cccnc3)cc12 [Compound 48, 5-(Pyridin-3-yl)-N-(4-(trifluoromethyl)pyridin-3-yl)-1H-indazole-3-carboxamide] | ≥ 10000 nM
O=C(Nc1cccnc1)c1n[nH]c2ccc(-c3cccc(CN4CCCC4)c3)cc12 [Compound 49, N-(Pyridin-3-yl)-5-(3-(pyrrolidin-1-ylmethyl)phenyl)-1H-indazole-3-carboxamide] | 57 nM
O=C(Nc1ccc(-c2ccccc2)nc1)c1n[nH]c2ccc(-c3cncc(CN4CCCC4)c3)cc12 [Compound 50, N-(6-Phenylpyridin-3-yl)-5-(5-(pyrrolidin-1-ylmethyl)pyridin-3-yl)-1H-indazole-3-carboxamide] | 71 nM
O=C(Nc1cccnc1)c1n[nH]c2ccc(-c3ccc(N4CCCC4)nc3)cc12 [Compound 51, N-(Pyridin-3-yl)-5-(6-(pyrrolidin-1-yl)pyridin-3-yl)-1H-indazole-3-carboxamide] | 26 nM
